According to ChEMBL document CHEMBL1201862, “PubChem BioAssay data set” (2004):
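Following 48 hours of exposure in 96-well plates, responses at five concentrations were used to interpolate endpoints linearly. GI50: concentration for 50% inhibition of growth.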 Calls of active or inactive are those of the source. No stated cut-off is given here; in the data, active = GI50 up to about 1.1 µM and inactive = higher.

What was measured:
Experiment in all cases: NCI anticancer screen, dose series, 48 h
A498 = test system: A498
CCRF-CEM = test system: CCRF-CEM
COLO 205 = test system: COLO 205
DMS-114 = test system: DMS-114
HCC 2998 = test system: HCC 2998
HCT-15 = test system: HCT-15
HOP-92 = test system: HOP-92
IGROV-1 = test system: IGROV-1
KM-20L2 = test system: KM-20L2
M19-MEL = test system: M19-MEL
RXF 393 = test system: RXF 393
SK-MEL-2 = test system: SK-MEL-2
SNB-19 = test system: SNB-19
UO-31 = test system: UO-31
EKVX = test system: EKVX
M14 = test system: M14
NCI-H226 = test system: NCI-H226

| Compound | GI50 (A498) | GI50 (CCRF-CEM) | GI50 (COLO 205) | GI50 (DMS-114) | GI50 (HCC 2998) | GI50 (HCT-15) | GI50 (HOP-92) | GI50 (IGROV-1) | GI50 (KM-20L2) | GI50 (M19-MEL) | GI50 (RXF 393) | GI50 (SK-MEL-2) | GI50 (SNB-19) | GI50 (UO-31) | GI50 (EKVX) | GI50 (M14) | GI50 (NCI-H226) |
| --- | --- | --- | --- | --- | --- | --- | --- | --- | --- | --- | --- | --- | --- | --- | --- | --- | --- |
| O=NN(CCF)C(=O)NC1CCSCC1 | > 100 µM (inactive) | > 100 µM (inactive) | > 100 µM (inactive) | > 100 µM (inactive) | > 100 µM (inactive) | > 100 µM | > 100 µM (inactive) | > 100 µM (inactive) | > 100 µM (inactive) | > 100 µM (inactive) | > 100 µM (inactive) | > 100 µM (inactive) | > 100 µM (inactive) | > 100 µM (inactive) |  |  |  |
| CC1CC2=Nc3ccccc3NC(c3ccccc3)C2=C(O)O1 (centres undefined) | > 100 µM (inactive) | > 100 µM (inactive) | > 100 µM (inactive) | > 100 µM (inactive) | > 100 µM (inactive) | > 100 µM |  | > 100 µM (inactive) | > 100 µM (inactive) | > 100 µM (inactive) | > 100 µM (inactive) | > 100 µM (inactive) | > 100 µM (inactive) | > 100 µM (inactive) | > 100 µM (inactive) | > 100 µM (inactive) | > 100 µM (inactive) |
| COc1ccccc1C1C(C(=O)O)=C(CO)Oc2cc3c(cc21)OCO3 (centres undefined) | > 100 µM (inactive) | > 100 µM (inactive) | > 100 µM (inactive) | > 100 µM (inactive) |  | > 100 µM | > 100 µM (inactive) | > 100 µM (inactive) | > 100 µM (inactive) | > 100 µM (inactive) |  | > 100 µM (inactive) | > 100 µM (inactive) | > 100 µM (inactive) | > 100 µM (inactive) | > 100 µM (inactive) | > 100 µM (inactive) |
| CCN(CC)CC(C)(C)C(=O)/C=C/c1ccc(C)cc1 | 4.54 µM (inactive) | 2.82 µM (inactive) |  |  | 10 µM (inactive) | 3.61 µM | 1.91 µM (inactive) |  | 4.17 µM (inactive) | 9.46 µM (inactive) | 9.62 µM (inactive) | 12.7 µM (inactive) | 11.8 µM (inactive) | 10.5 µM (inactive) | 4.88 µM (inactive) | 12.1 µM (inactive) |  |
| Cc1ccccc1NC(=O)CC(=O)N1N=C(N2c3ccccc3Sc3ccccc32)CC1c1ccccc1 (centres undefined) | > 100 µM (inactive) |  | > 100 µM (inactive) | > 100 µM (inactive) | > 100 µM (inactive) | > 100 µM | > 100 µM (inactive) | > 100 µM (inactive) | > 100 µM (inactive) | > 100 µM (inactive) |  |  | > 100 µM (inactive) | > 100 µM (inactive) | > 100 µM (inactive) | > 100 µM (inactive) | > 100 µM (inactive) |
| Cc1cc(Cl)ccc1/N=C1/NC(=O)C(CC(=O)Nc2cccc(C)c2C)S1 (centres undefined) | 16.9 µM (inactive) | 22.2 µM (inactive) | 24.3 µM (inactive) | 22.8 µM (inactive) | 26.2 µM (inactive) | 28.4 µM | 1.41 µM (inactive) | 34.8 µM (inactive) | 29.9 µM (inactive) | 35.1 µM (inactive) |  | 20.8 µM (inactive) | 26.8 µM (inactive) | 21.6 µM (inactive) | 37.8 µM (inactive) | 18.1 µM (inactive) |  |
| CCC1=CCN(c2cc(C)ccn2)OC1c1ccc(OC)cc1 (centres undefined) |  | 23.7 µM (inactive) | 16.3 µM (inactive) | 27.9 µM (inactive) | 40.6 µM (inactive) | 27.3 µM |  | 55.7 µM (inactive) | 30.3 µM (inactive) | 31.5 µM (inactive) | 22.3 µM (inactive) | 16.9 µM (inactive) | 46.1 µM (inactive) | 25.6 µM (inactive) | 40.6 µM (inactive) | 32.5 µM (inactive) | 38.3 µM (inactive) |
| CCCCC1=CSC(c2ccccc2)=C(c2ccccc2)S1 | > 100 µM (inactive) | 21.6 µM (inactive) | > 100 µM (inactive) | > 100 µM (inactive) | 37.6 µM (inactive) | 26.2 µM | 11.7 µM (inactive) | > 100 µM (inactive) | 42.8 µM (inactive) | 38.9 µM (inactive) |  |  | 43.3 µM (inactive) | > 100 µM (inactive) | > 100 µM (inactive) | 85.1 µM (inactive) | > 100 µM (inactive) |
| COC1CCC(OS(C)(=O)=O)CO1 (centres undefined) | > 100 µM (inactive) | 22.5 µM (inactive) | > 100 µM (inactive) | > 100 µM (inactive) |  |  | > 100 µM (inactive) | > 100 µM (inactive) | > 100 µM (inactive) | > 100 µM (inactive) | > 100 µM (inactive) | > 100 µM (inactive) | > 100 µM (inactive) | > 100 µM (inactive) |  | > 100 µM (inactive) |  |
| CC1C=CC(=O)C(n2cc(F)c(=O)[nH]c2=O)O1 (centres undefined) |  | 8.89 µM (inactive) | 20.1 µM (inactive) | 15.9 µM (inactive) |  | 16.6 µM | 17.5 µM (inactive) | 20.8 µM (inactive) | 21.3 µM (inactive) | 18.5 µM (inactive) | 19.8 µM (inactive) |  | 22.2 µM (inactive) | 16.4 µM (inactive) | 22.5 µM (inactive) | 18.1 µM (inactive) |  |
| CC1(C)CC23C4COC(=O)C2CCC1C3CC4=O (centres undefined) | 5.92 µM (inactive) | 2.37 µM (inactive) | 15.6 µM (inactive) |  | 13.9 µM (inactive) | 6.52 µM | 8.26 µM (inactive) | 21.9 µM (inactive) | 21.4 µM (inactive) | 11.9 µM (inactive) | 1.71 µM (inactive) | 14.5 µM (inactive) | 28.3 µM (inactive) | 28.6 µM (inactive) | 26.7 µM (inactive) |  | 6.59 µM (inactive) |
| CC1Cc2c(N)nc(N3CCOCC3)nc2NC1=O (centres undefined) |  | > 100 µM (inactive) | > 100 µM (inactive) | > 100 µM (inactive) |  | > 100 µM |  | > 100 µM (inactive) | > 100 µM (inactive) | > 100 µM (inactive) | > 100 µM (inactive) | > 100 µM (inactive) | > 100 µM (inactive) | > 100 µM (inactive) | > 100 µM (inactive) | > 100 µM (inactive) | > 100 µM (inactive) |
| COc1ccc(NC(=O)CC(=O)n2nc(C)c(/N=N/c3ccccc3C(=O)O)c2C)cc1 | > 100 µM (inactive) | > 100 µM (inactive) | > 100 µM (inactive) | > 100 µM (inactive) | > 100 µM (inactive) | > 100 µM |  | > 100 µM (inactive) | > 100 µM (inactive) | > 100 µM (inactive) |  | > 100 µM (inactive) | 80.7 µM (inactive) | > 100 µM (inactive) | > 100 µM (inactive) | > 100 µM (inactive) |  |
| Cc1ccc2c(c1)C1(OC(=O)c3ccccc31)c1ccc(F)cc1O2 (centres undefined) |  | 31.8 µM (inactive) | 38.7 µM (inactive) | 34.6 µM (inactive) | 66.1 µM (inactive) |  | 16.1 µM (inactive) | > 100 µM (inactive) | 44.1 µM (inactive) | 57 µM (inactive) |  | 43.3 µM (inactive) |  | 20.3 µM (inactive) | 59 µM (inactive) | 28.6 µM (inactive) | 18.7 µM (inactive) |
| CC(C)(C)C1=NO[C@H]2[C@@H](NC(=O)c3ccccc3)CC[C@@H]12 |  | > 100 µM (inactive) | > 100 µM (inactive) | > 100 µM (inactive) | > 100 µM (inactive) | > 100 µM | 98.2 µM (inactive) | > 100 µM (inactive) | > 100 µM (inactive) | > 100 µM (inactive) | > 100 µM (inactive) |  | > 100 µM (inactive) | > 100 µM (inactive) |  | > 100 µM (inactive) | > 100 µM (inactive) |
| CC(=O)OC(C)(C)C[N+](=O)[O-] |  | > 100 µM (inactive) | > 100 µM (inactive) | > 100 µM (inactive) | > 100 µM (inactive) | > 100 µM | > 100 µM (inactive) | > 100 µM (inactive) | > 100 µM (inactive) | > 100 µM (inactive) | > 100 µM (inactive) | > 100 µM (inactive) | > 100 µM (inactive) | > 100 µM (inactive) | > 100 µM (inactive) | > 100 µM (inactive) | > 100 µM (inactive) |
| COC(=O)C1=C2CCC(=O)[C@@]2(C)C(OC(C)=O)C=CC1 (some centres undefined) | > 100 µM (inactive) | 22.9 µM (inactive) |  | 32.7 µM (inactive) | > 100 µM (inactive) | 29.5 µM |  | > 100 µM (inactive) | > 100 µM (inactive) | > 100 µM (inactive) | > 100 µM (inactive) | 71.6 µM (inactive) |  | > 100 µM (inactive) | > 100 µM (inactive) | 88.9 µM (inactive) | > 100 µM (inactive) |
| Cn1cnc([N+](=O)[O-])c1Sc1nc2cc([N+](=O)[O-])ccc2[nH]1 | 29.6 µM (inactive) | 15.4 µM (inactive) | 10.4 µM (inactive) |  | 15 µM (inactive) | 13.5 µM | 17.3 µM (inactive) | 19 µM (inactive) | 24.8 µM (inactive) | 17.4 µM (inactive) | 17.5 µM (inactive) |  | 42.3 µM (inactive) | 19.1 µM (inactive) | 10.5 µM (inactive) | 34.4 µM (inactive) | 40.2 µM (inactive) |
| CCCCc1ccc(-n2c3nc(=O)n(C)c(=O)c-3nc3ccccc32)cc1 | 18.7 µM (inactive) | 13.5 µM (inactive) | 3.09 µM (inactive) | 4.7 µM (inactive) | 4.36 µM (inactive) | 6.35 µM |  | 13.6 µM (inactive) | 4.4 µM (inactive) | 1.5 µM (inactive) | 18.4 µM (inactive) | 10.9 µM (inactive) | 8.24 µM (inactive) | 12.5 µM (inactive) | 4.05 µM (inactive) | 7.89 µM (inactive) | 11.7 µM (inactive) |
